Measured values published in PMC4033665 (Journal of Medicinal Chemistry, 2014).
“Also recorded” adds a separate entry of the source. Like-named read-outs stand apart in the source and are kept apart here.

Legend:
[1] = system: HL-60 cells; assay: apoptosis by annexin-V / PI double staining, flow cytometry, HL-60; format: cell-based, human; settings: for induction of apoptosis in HL-60 (in words) / apoptotic cells (early + late): 20 h
[2] = system: Eμ-myc/Bcl-2 lymphoma cells; assay: cell death; format: cell-based, mice; settings: 15–18 h, increasing concentrations
[3] = system: Eμ-myc/Mcl-1 lymphoma cells; assay: cell death; format: cell-based, mice; settings: 15–18 h, increasing concentrations
[4] = biological target: T1, human Mcl-1 (Homo sapiens, UniProt Q07820); assay: 1H,15N-HSQC NMR chemical shift perturbation of Mcl-1; format: binding; settings: 15N-labeled Mcl-1 75 μM, Mcl-1:compound 1:1 and 1:2
T1 sequence (Q07820 171-327): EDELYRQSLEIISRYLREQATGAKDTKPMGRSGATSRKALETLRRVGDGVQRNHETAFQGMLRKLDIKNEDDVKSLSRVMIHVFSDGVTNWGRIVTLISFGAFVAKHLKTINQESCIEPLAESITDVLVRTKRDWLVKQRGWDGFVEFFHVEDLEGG

[5] = biological target: T1, human Mcl-1; format: binding; settings: for improved binding in SPR assay compared to 3: reference compound 3; for decrease of binding in SPR assay compared to 10: reference compound 10
[6] = biological target: T1, human Mcl-1; format: binding; settings: for improved binding compared to 1: reference compound 1
[7] = biological target: endogenous Mcl-1 protein (Homo sapiens, UniProt Q07820); assay: biotin-streptavidin pull-down with biotin-labeled Noxa in 2LMP whole cell lysate; settings: BL-Noxa 0.1 μM
endogenous Mcl-1 protein, sequence (Q07820 whole entry): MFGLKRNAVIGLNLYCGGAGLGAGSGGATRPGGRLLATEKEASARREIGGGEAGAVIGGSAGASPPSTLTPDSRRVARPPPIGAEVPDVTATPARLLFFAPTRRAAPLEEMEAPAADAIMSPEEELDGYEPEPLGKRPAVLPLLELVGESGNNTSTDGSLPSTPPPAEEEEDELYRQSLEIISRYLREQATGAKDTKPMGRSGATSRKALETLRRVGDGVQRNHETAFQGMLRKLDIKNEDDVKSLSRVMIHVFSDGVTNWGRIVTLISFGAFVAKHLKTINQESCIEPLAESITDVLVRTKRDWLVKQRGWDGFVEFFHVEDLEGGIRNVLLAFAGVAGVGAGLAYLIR

[8] = system: caspase-3 activity in HL-60 cells; assay: caspase-3 fluorometric assay; format: cell-based, human; settings: for induction of caspase-3 activity (in words): HL-60, 20 h
[9] = biological target: Bcl-2; settings: read-out: Ki against Bcl-2; cited from earlier work
[10] = biological target: Mcl-1; settings: read-out: Ki of 53 to Mcl-1; cited from earlier work

For COC(=O)C[C@H](NC(=O)[C@H](C)NC(=O)[C@@H](NC(=O)OCc1ccccc1)C(C)C)C(=O)CF (racemic) [Z-VAD-FMK, Z-Val-Ala-DL-Asp-fluoromethylketone, reference compound], which “effect of Z-VAD-FMK alone on cells” value ([1]; HL-60, Figure S7) is on record?
Its value is “has no effect on cells”.

Which “sensitivity of lymphoma cells overexpressing Bcl-2 to induced cell death” value [2] does the source give for CC1(C)CCC(c2ccc(Cl)cc2)=C(CN2CCN(c3ccc(C(=O)NS(=O)(=O)c4ccc(N[C@H](CCN5CCOCC5)CSc5ccccc5)c(S(=O)(=O)C(F)(F)F)c4)cc3)CC2)C1 [ABT-263, reference compound] here?
Its value is “sensitive”.

And the “sensitivity of lymphoma cells overexpressing Mcl-1 to induced cell death” value [3]?
The value was “insensitive”.

With CS(=O)(=O)Nc1cc(SCC(=O)O)c(O)c2ccccc12 [Compound 2, 2-((1-Hydroxy-4-(methylsulfonamido)naphthalen-2-yl)thio)acetic Acid] as the compound, how does the “chemical shift perturbation of Mcl-1 backbone residues (HSQC NMR, in words)” value [4] read?
Its value is “lack of chemical shift perturbation”.

Which “improved binding in SPR assay compared to 3” value [5] does the source give for CC(C)(C)c1ccc(S(=O)(=O)Nc2cc(SCC(=O)O)c(O)c3ccccc23)cc1 [Compound 7] here?
The value was 1.5 fold.

What about the “improved binding in FP assay compared to 3” value ([6]; reference compound 3) of the same compound?
The value was 4.5 fold.

For O=C(O)CSc1cc(NS(=O)(=O)c2ccc(Br)cc2)c2ccccc2c1O [Compound 10, 2-((4-(4-Bromophenylsulfonamido)-1-hydroxynaphthalen-2-yl)thio)acetic Acid], which “binding of BL-Noxa to Mcl-1 after preincubation (pull-down, Western blot)” value (“binding of BL-Noxa” for short) [7] is on record?
The value was “completely blocked”.

And the “improved binding in SPR assay compared to 3” value [5]?
Its value is 5 fold.

What about the “improved binding compared to 1” value [6] of the same compound?
Its value is 7 fold.

And the “improved binding in FP assay compared to 3” value ([6]; reference compound 3)?
Its value is 7 fold.

For COc1ccc(S(=O)(=O)Nc2cc(SCC(=O)O)c(O)c3ccccc23)cc1 [Compound 11, 2-((1-Hydroxy-4-(4-methoxyphenylsulfonamido)naphthalen-2-yl)thio)acetic Acid], which “decreased binding in FP assay compared to 3” value [6] is on record?
Its value is 3 fold.

Which results are given for O=C(O)CSc1cc(NS(=O)(=O)c2ccc(-c3ccccc3)cc2)c2ccccc2c1O [Compound 16, 2-((4-([1,1′-Biphenyl]-4-ylsulfonamido)-1-hydroxynaphthalen-2-yl)thio)acetic Acid]?
improved binding in SPR assay compared to 3 [5]: 6 fold; improved binding in FP assay compared to 3 [6]: 10 fold

Which “improved binding in SPR assay compared to 3” value [5] does the source give for O=C(O)CSc1cc(NS(=O)(=O)c2cccc(-c3ccccc3)c2)c2ccccc2c1O [Compound 17, 2-((4-([1,1′-Biphenyl]-3-ylsulfonamido)-1-hydroxynaphthalen-2-yl)thio)acetic Acid] here?
Its value is 6 fold.

What about the “improved binding in FP assay compared to 3” value ([6]; reference compound 3) of the same compound?
The value was 10 fold.

With O=C(O)CSc1cc(NS(=O)(=O)c2ccc(-c3ccc(Cl)cc3)cc2)c2ccccc2c1O [Compound 19, 2-((4-(4′-Chloro-[1,1′-biphenyl]-4-ylsulfonamido)-1-hydroxynaphthalen-2-yl)thio)acetic Acid] as the compound, how does the “sensitivity of lymphoma cells overexpressing Bcl-2 to induced cell death” value [2] read?
Its value is “ineffective”.

What about the “sensitivity of lymphoma cells overexpressing Mcl-1 to induced cell death” value [3] of the same compound?
The value was “significantly sensitive”.

And the “induction of caspase-3 activity (in words)” value [8]?
Its value is “induce activation of caspase-3 activity in a dose-dependent manner; also recorded: induced activation of caspase-3”.

And the “binding of BL-Noxa” value [7]?
The value was “completely blocked”.

And the “improved binding in SPR assay compared to 3” value [5]?
The value was 14 fold.

And the “less potent than 53 (Mcl-1 binding)” value [6]?
Its value is 3 fold.

What about the “improved binding compared to 1” value [6] of the same compound?
The value was 9 fold.

What about the “improved binding in FP assay compared to 3” value ([6]; reference compound 3) of the same compound?
The value was 21 fold.

With O=C(O)CSc1cc(NS(=O)(=O)c2ccc(Oc3ccccc3)cc2)c2ccccc2c1O [Compound 21, 2-((1-Hydroxy-4-(4-phenoxyphenylsulfonamido)naphthalen-2-yl)thio)acetic Acid] as the compound, how does the “sensitivity of lymphoma cells overexpressing Bcl-2 to induced cell death” value [2] read?
The value was “ineffective”.

And the “sensitivity of lymphoma cells overexpressing Mcl-1 to induced cell death” value [3]?
Its value is “significantly sensitive”.

And the “induction of caspase-3 activity (in words)” value [8]?
The value was “induce activation of caspase-3 activity in a dose-dependent manner; also recorded: induced activation of caspase-3”.

And the “concentration at which activation of caspase-3 starts” value ([8]; HL-60, over a 24 h period)?
The value was 2.5 µM.

What about the “binding of BL-Noxa” value [7] of the same compound?
Its value is “completely blocked”.

What about the “less potent than 53 (Mcl-1 binding)” value [6] of the same compound?
The value was 3 fold.

And the “induction of apoptosis in HL-60 (in words)” value ([1]; 2.5, 5.0 and 10 μM)?
The value was “effectively induced apoptosis in a dose-dependent manner”.

What about the “concentration at which induction of apoptosis starts” value ([1]; HL-60) of the same compound?
Its value is 2.5 µM.

And the “apoptotic cells (early + late)” value ([1]; HL-60, 5.0 μM)?
Its value is 37.8%.

And the “apoptotic cells (early + late)” value ([1]; HL-60, 10 μM)?
The value was 78.4%.

Which “decrease in binding in SPR assay in comparison with 16” value ([5]; reference compound 16) does the source give for O=C(O)CSc1cc(NS(=O)(=O)N2CCN(c3ccccc3)CC2)c2ccccc2c1O [Compound 23, 2-((1-Hydroxy-4-(4-phenylpiperazine-1-sulfonamido)naphthalen-2-yl)thio)acetic Acid] here?
The value was 8 fold.

What about the “decrease in binding in FP assay in comparison with 16” value [6] of the same compound?
The value was 6 fold.

For O=C(O)CSc1cc(NC(=O)c2ccc(Br)cc2)c2ccccc2c1O [Compound 25, 2-((4-(4-Bromobenzamido)-1-hydroxynaphthalen-2-yl)thio)acetic Acid], which “decrease of binding in FP assay compared to 10” value (“decrease of binding in FP assay” for short) [6] is on record?
The value was 83 fold.

Which “decreased binding affinity (FP) relative to 9” value ([6]; reference compound 9) does the source give for O=C(O)CSc1cc(NS(=O)(=O)Cc2ccc(Cl)cc2)c2ccccc2c1O [Compound 26, 2-((4-((4-Chlorophenyl)methylsulfonamido)-1-hydroxynaphthalen-2-yl)thio)acetic Acid] here?
The value was 6 fold.

With O=C(O)CSc1cc(CNS(=O)(=O)c2ccccc2)c2ccccc2c1O [Compound 27] as the compound, how does the “decreased binding in FP assay compared to 3” value [6] read?
Its value is 18 fold.

Which “did not show binding up to (FP assay, highest concentration tested)” value ([6]; competitive FP, Mcl-1) does the source give for O=S(=O)(Nc1ccc(O)c2ccccc12)c1ccccc1 [Compound 30] here?
Its value is over 100 µM.

Which “did not show binding up to (FP assay, highest concentration tested)” value ([6]; competitive FP, Mcl-1) does the source give for CCCCSc1cc(NS(=O)(=O)c2ccc(Br)cc2)c2ccccc2c1O [Compound 31, 4-Bromo-N-(3-(butylthio)-4-hydroxynaphthalen-1-yl)benzenesulfonamide] here?
Its value is over 100 µM.

With COC(=O)CSc1cc(NS(=O)(=O)c2ccc(Br)cc2)c2ccccc2c1O [Compound 32, Methyl 2-((4-(4-Bromophenylsulfonamido)-1-hydroxynaphthalen-2-yl)thio)acetate] as the compound, how does the “decrease of binding in SPR assay compared to 10” value [5] read?
Its value is 6 fold.

What about the “decrease of binding in FP assay” value ([6]; reference compound 10) of the same compound?
Its value is 10 fold.

Which results are given for NC(=O)CSc1cc(NS(=O)(=O)c2ccc(Br)cc2)c2ccccc2c1O [Compound 33, 2-((4-(4-Bromophenylsulfonamido)-1-hydroxynaphthalen-2-yl)thio)acetamide]?
decrease of binding in SPR assay compared to 10 [5]: 2 fold; decrease of binding in FP assay compared to 10 [6]: 3 fold

Which “induction of apoptosis in HL-60 (in words)” value ([1]; 2.5, 5.0 and 10 μM) does the source give for O=S(=O)(Nc1cc(SCc2nnn[nH]2)c(O)c2ccccc12)c1ccc(Oc2ccccc2)cc1 [Compound 37, N-(3-(((2H-Tetrazol-5-yl)methyl)thio)-4-hydroxynaphthalen-1-yl)-4-phenoxybenzenesulfonamide] here?
The value was “effectively induced apoptosis in a dose-dependent manner”.

What about the “apoptotic cells (early + late)” value ([1]; HL-60, 5.0 μM) of the same compound?
The value was 51.6%.

What about the “apoptotic cells (early + late)” value ([1]; HL-60, 10 μM) of the same compound?
Its value is 74.2%.

And the “induction of apoptosis in the presence of Z-VAD-FMK (in words)” value ([1]; HL-60, pretreated with 100 μM Z-VAD-FMK)?
Its value is “significantly inhibited”.

What does the source list for COC(=O)CSc1cc(NS(=O)(=O)c2ccc(Br)cc2)c2ccccc2c1OC [Compound 41, Methyl 2-((4-(4-Bromophenylsulfonamido)-1-methoxynaphthalen-2-yl)thio)acetate]?
sensitivity of lymphoma cells overexpressing Bcl-2 to induced cell death [2]: did not show any activity; sensitivity of lymphoma cells overexpressing Mcl-1 to induced cell death [3]: did not show any activity; did not show binding up to (FP assay, highest concentration tested) [6]: > 100 µM; induction of apoptosis in HL-60 (in words) ([1]; 40 μM): has no effect on apoptosis induction

For CC(=O)Oc1c(SCC(=O)O)cc(NS(=O)(=O)c2ccc(Br)cc2)c2ccccc12 [Compound 46, 2-((1-Acetoxy-4-(4-bromophenylsulfonamido)naphthalen-2-yl)thio)acetic Acid], which “decrease of binding in FP assay” value ([6]; reference compound 10) is on record?
Its value is 69 fold.

Which Ki [9] does the source give for COc1c(I)cc(C=O)c2ccccc12 [Compound 53] here?
The Ki was 870 nM.

What about the Ki [10] of the same compound?
Its Ki is 55 nM.
